Test results published in PubChem BioAssay AID1963849 (Molecular Pharmacology Branch, DTP, NCI, 2024).

Test system: 299254-011-R-J1-PDC complex spheroid viability
Experiment: Anticancer human tumor 299254-011-R-J1-PDC patient-derived melanoma cell line growth inhibition [POLQ]
Settings: for IC50: curve of first compound; for viability, T/C: stronger effect = lower value
In short: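 Three-cell-type spheroids modelling solid tumor plus stroma served as the readout system; POL inhibitors were tested individually and in combination, concentration ranges set by clinical Cmax where known.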

[1] = second compound 0.0316 µM, first compound 0.0316 µM
[2] = second compound 0.0316 µM, first compound 0.1 µM
[3] = second compound 0.0316 µM, first compound 0.316 µM
[4] = second compound 0.0316 µM, first compound 1 µM
[5] = second compound 0.0316 µM, first compound 3.16 µM
[6] = second compound 0.0316 µM, first compound 10 µM
[7] = second compound 0.1 µM, first compound 0.0316 µM
[8] = second compound 0.1 µM, first compound 0.1 µM
[9] = second compound 0.1 µM, first compound 0.316 µM
[10] = second compound 0.1 µM, first compound 1 µM
[11] = second compound 0.1 µM, first compound 3.16 µM
[12] = second compound 0.1 µM, first compound 10 µM
[13] = second compound 0.316 µM, first compound 0.0316 µM
[14] = second compound 0.316 µM, first compound 0.1 µM
[15] = second compound 0.316 µM, first compound 0.316 µM
[16] = second compound 0.316 µM, first compound 1 µM
[17] = second compound 0.316 µM, first compound 3.16 µM
[18] = second compound 0.316 µM, first compound 10 µM
[19] = second compound 1 µM, first compound 0.0316 µM
[20] = second compound 1 µM, first compound 0.1 µM
[21] = second compound 1 µM, first compound 0.316 µM
[22] = second compound 1 µM, first compound 1 µM
[23] = second compound 1 µM, first compound 3.16 µM
[24] = second compound 1 µM, first compound 10 µM
[25] = second compound 3.16 µM, first compound 0.0316 µM
[26] = second compound 3.16 µM, first compound 0.1 µM
[27] = second compound 3.16 µM, first compound 0.316 µM
[28] = second compound 3.16 µM, first compound 1 µM
[29] = second compound 3.16 µM, first compound 3.16 µM
[30] = second compound 3.16 µM, first compound 10 µM
[31] = second compound 10 µM, first compound 0.0316 µM
[32] = second compound 10 µM, first compound 0.1 µM
[33] = second compound 10 µM, first compound 0.316 µM
[34] = second compound 10 µM, first compound 1 µM
[35] = second compound 10 µM, first compound 3.16 µM
[36] = second compound 10 µM, first compound 10 µM
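Further: spheroids exposed to drugs for one week before measurement.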
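Wherever viability, T/C is given: percent viability relative to DMSO vehicle control taken as 100%.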

CCc1cc2c(N3CCc4c(cc(Cn5ccnc5)cc4-c4cn(C)nc4C(F)(F)F)C3=O)ccnc2c(OC)n1 + COC1C(OC(N)=O)C(O)C(Oc2ccc3c(O)c(NC(=O)c4ccc(O)c(CC=C(C)C)c4)c(=O)oc3c2C)OC1(C)C was tested, and the IC50 (second compound 0.0316 µM) was over 10 µM, the IC50 (second compound 0.1 µM) was over 10 µM and the IC50 (second compound 0.316 µM) was over 10 µM. For the same molecule, the IC50 (second compound 1 µM) was over 10 µM, the IC50 (second compound 3.16 µM) was over 10 µM and the IC50 (second compound 10 µM) was over 10 µM. The viability, T/C [1] was 115%, the viability, T/C [2] was 104% and the viability, T/C [3] was 111%. It also gave a viability, T/C [4] of 116%, a viability, T/C [5] of 107% and a viability, T/C [6] of 82.2%. It also gave a viability, T/C [7] of 110%, a viability, T/C [8] of 105% and a viability, T/C [9] of 101%. It also gave a viability, T/C [10] of 85.2%, a viability, T/C [11] of 92.2% and a viability, T/C [12] of 71.3%. The viability, T/C [13] was 93%, the viability, T/C [14] was 121% and the viability, T/C [15] was 101%. The viability, T/C [16] was 95.8%, the viability, T/C [17] was 101% and the viability, T/C [18] was 91.4%. For the same molecule, the viability, T/C [19] was 107%, the viability, T/C [20] was 110% and the viability, T/C [21] was 106%. It also gave a viability, T/C [22] of 106%, a viability, T/C [23] of 113% and a viability, T/C [24] of 84.7%. It also gave a viability, T/C [25] of 99.3%, a viability, T/C [26] of 101% and a viability, T/C [27] of 116%. It also gave a viability, T/C [28] of 114%, a viability, T/C [29] of 92.9% and a viability, T/C [30] of 80%. The viability, T/C [31] was 120%, the viability, T/C [32] was 99.2% and the viability, T/C [33] was 111%. For the same molecule, the viability, T/C [34] was 118%, the viability, T/C [35] was 97.5% and the viability, T/C [36] was 81.4%.
Molecule COc1ccc([C@@H](O)c2cc(-c3ncnc4cc(N5CCOCC5)ccc34)c(F)cc2Cl)nn1 + COC1C(OC(N)=O)C(O)C(Oc2ccc3c(O)c(NC(=O)c4ccc(O)c(CC=C(C)C)c4)c(=O)oc3c2C)OC1(C)C has an IC50 (second compound 0.0316 µM) of 9.66 µM, an IC50 (second compound 0.1 µM) of 8.91 µM and an IC50 (second compound 0.316 µM) of 8.8 µM. It also gave an IC50 (second compound 1 µM) of over 10 µM, an IC50 (second compound 3.16 µM) of over 10 µM and an IC50 (second compound 10 µM) of 8.74 µM. For the same molecule, the viability, T/C [1] was 103%, the viability, T/C [2] was 90.6% and the viability, T/C [3] was 97.7%. It also gave a viability, T/C [4] of 109%, a viability, T/C [5] of 102% and a viability, T/C [6] of 48.3%. It also gave a viability, T/C [7] of 115%, a viability, T/C [8] of 109% and a viability, T/C [9] of 114%. The viability, T/C [10] was 99%, the viability, T/C [11] was 89.8% and the viability, T/C [12] was 45.4%. The viability, T/C [13] was 116%, the viability, T/C [14] was 125% and the viability, T/C [15] was 118%. The viability, T/C [16] was 106%, the viability, T/C [17] was 86.7% and the viability, T/C [18] was 45.4%. The viability, T/C [19] was 118%, the viability, T/C [20] was 107% and the viability, T/C [21] was 101%. For the same molecule, the viability, T/C [22] was 110%, the viability, T/C [23] was 90.6% and the viability, T/C [24] was 54.5%. It also gave a viability, T/C [25] of 128%, a viability, T/C [26] of 96.3% and a viability, T/C [27] of 109%. It also gave a viability, T/C [28] of 103%, a viability, T/C [29] of 85.1% and a viability, T/C [30] of 51.1%. The viability, T/C [31] was 107%, the viability, T/C [32] was 107% and the viability, T/C [33] was 105%. It also gave a viability, T/C [34] of 87.1%, a viability, T/C [35] of 92.9% and a viability, T/C [36] of 44%.
Cn1ncnc1[C@H]1c2n[nH]c(=O)c3cc(F)cc(c23)N[C@@H]1c1ccc(F)cc1 + COC1C(OC(N)=O)C(O)C(Oc2ccc3c(O)c(NC(=O)c4ccc(O)c(CC=C(C)C)c4)c(=O)oc3c2C)OC1(C)C was tested, and the IC50 (second compound 0.0316 µM) was over 0.1 µM, the IC50 (second compound 0.1 µM) was over 0.1 µM and the IC50 (second compound 0.316 µM) was over 0.1 µM. For the same molecule, the IC50 (second compound 1 µM) was over 0.1 µM, the IC50 (second compound 3.16 µM) was over 0.1 µM and the IC50 (second compound 10 µM) was over 0.1 µM. For the same molecule, the viability, T/C (second compound 0.0316 µM, first compound 0.000316 µM) was 106%, the viability, T/C (second compound 0.0316 µM, first compound 0.001 µM) was 84.4% and the viability, T/C (second compound 0.0316 µM, first compound 0.00316 µM) was 101%. The viability, T/C (second compound 0.0316 µM, first compound 0.01 µM) was 98.8%, the viability, T/C [1] was 97% and the viability, T/C [2] was 98.1%. It also gave a viability, T/C (second compound 0.1 µM, first compound 0.000316 µM) of 101%, a viability, T/C (second compound 0.1 µM, first compound 0.001 µM) of 91.3% and a viability, T/C (second compound 0.1 µM, first compound 0.00316 µM) of 105%. For the same molecule, the viability, T/C (second compound 0.1 µM, first compound 0.01 µM) was 90.9%, the viability, T/C [7] was 106% and the viability, T/C [8] was 87.6%. It also gave a viability, T/C (second compound 0.316 µM, first compound 0.000316 µM) of 89.4%, a viability, T/C (second compound 0.316 µM, first compound 0.001 µM) of 94.6% and a viability, T/C (second compound 0.316 µM, first compound 0.00316 µM) of 101%. The viability, T/C (second compound 0.316 µM, first compound 0.01 µM) was 92%, the viability, T/C [13] was 107% and the viability, T/C [14] was 96.2%. The viability, T/C (second compound 1 µM, first compound 0.000316 µM) was 105%, the viability, T/C (second compound 1 µM, first compound 0.001 µM) was 111% and the viability, T/C (second compound 1 µM, first compound 0.00316 µM) was 102%. For the same molecule, the viability, T/C (second compound 1 µM, first compound 0.01 µM) was 118%, the viability, T/C [19] was 96.5% and the viability, T/C [20] was 97.4%. For the same molecule, the viability, T/C (second compound 3.16 µM, first compound 0.000316 µM) was 99.7%, the viability, T/C (second compound 3.16 µM, first compound 0.001 µM) was 103% and the viability, T/C (second compound 3.16 µM, first compound 0.00316 µM) was 98.9%. For the same molecule, the viability, T/C (second compound 3.16 µM, first compound 0.01 µM) was 93.2%, the viability, T/C [25] was 103% and the viability, T/C [26] was 100%. For the same molecule, the viability, T/C (second compound 10 µM, first compound 0.000316 µM) was 106%, the viability, T/C (second compound 10 µM, first compound 0.001 µM) was 105% and the viability, T/C (second compound 10 µM, first compound 0.00316 µM) was 115%. It also gave a viability, T/C (second compound 10 µM, first compound 0.01 µM) of 112%, a viability, T/C [31] of 119% and a viability, T/C [32] of 99.6%.
